Results on 2 molecules are retold here after patent publication US7429482B2, “Screening tools for discovery of novel anabolic agents” (United States of America as represented by the Department …, priority 2005, dated 2008).

One experiment relates to IGFBP-2. Kind of experiment: Chronic denervation: IGFBP-2 mRNA in gastrocnemius (qPCR). The format is in vivo, rat. As to the method:
(§1) Male Wistar rats weighing 200-250 gm (Taconic Farms, Germantown, N.Y.) were provided food and water ad libitum and were housed in a temperature and humidity controlled environment providing a 12:12 hour day-night cycle. For surgical procedures, animals were anesthetized with ketamine/xylazine. The left sciatic nerve was exposed by blunt dissection, and a 1 to 2 mm piece of this nerve was excised just below the level of the femoral head. A sham surgery was performed on the right hind limb in which the sciatic nerve was exposed but was not transected. Twenty eight days later, animals were anesthetized, and Alzet pumps were implanted subcutaneously on the back. […] Testosterone levels after replacement were approximately 15 nM, a high-normal range for rats of this age. […]
(§2) Total RNA was extracted from skeletal muscle (20 mg) by homogenization in guanidine thiocyanate using a Polytron followed by extraction of total RNA with phenol-chloroform as described by (Chomczynski and Sacchi, Anal Biochem 162: 156-159, 1987). […] Total RNA was eluted and quantified by absorbance at 260 nm. […] Levels of gene expression in the denervated muscle were expressed as fold induction relative to muscle from the sham-denervated leg of animals administered vehicle. […] Fold-induction was determined using the 2^−ΔΔCt method, using expression of 18S RNA as the normalization control. […]
Background: In qPCR the cycle at which signal appears reflects the starting amount.

The subject of the next experiment is IGFBP-4. Kind of experiment: Chronic denervation: IGFBP-4 mRNA in gastrocnemius (qPCR). Type of experiment: in vivo, rat. As to the method: as §1, §2
The next experiment concerns IGF-1 receptor. Nature of the experiment: Chronic denervation: IGF receptor mRNA in gastrocnemius (qPCR). The format is in vivo, rat. The note with it: for IGF-receptor expression: denervated muscle. The procedure: Male Wistar rats weighing 200-250 gm (Taconic Farms, Germantown, N.Y.) were provided food and water ad libitum and were housed in a temperature and humidity controlled environment providing a 12:12 hour day-night cycle. For surgical procedures, animals were anesthetized with ketamine/xylazine. The left sciatic nerve was exposed by blunt dissection, and a 1 to 2 mm piece of this nerve was excised just below the level of the femoral head. A sham surgery was performed on the right hind limb in which the sciatic nerve was exposed but was not transected. Twenty eight days later, animals were anesthetized, and Alzet pumps were implanted subcutaneously on the back. […] Testosterone levels after replacement were approximately 15 nM, a high-normal range for rats of this age. Animals were sacrificed 3, 7 or 28 days after implantation of the miniosmotic pumps by inhalation of carbon dioxide. Gastrocnemius muscles were excised and weighed, then flash frozen on dry ice and stored at −80° C.
Total RNA was extracted from skeletal muscle (20 mg) by homogenization in guanidine thiocyanate using a Polytron followed by extraction of total RNA with phenol-chloroform as described by (Chomczynski and Sacchi, Anal Biochem 162: 156-159, 1987). Total RNA was further enriched using RNAeasy minicolumns (Qiagen, Valencia, Calif.). This procedure included digestion of contaminating DNA on the column with RNAse-free DNAse (Qiagen). Total RNA was eluted and quantified by absorbance at 260 nm. One μg of total RNA was used to prepare a cDNA library by reverse transcription (High Capacity cDNA Archive Kit, Applied Biosystems). Libraries were diluted 25-fold with water. Real time PCR was performed Taqman 2×PCR buffer (Applied Biosystems) using an Applied Biosystems 7500 thermocycler. Levels of gene expression in the denervated muscle were expressed as fold induction relative to muscle from the sham-denervated leg of animals administered vehicle. […] Fold-induction was determined using the 2^−ΔΔCt method, using expression of 18S RNA as the normalization control. […]

In experiment [1] the test system is junB. Kind of experiment: Chronic denervation: junB mRNA in gastrocnemius (qPCR). The format is in vivo, rat. The procedure:
as §1, §2

Experiment [2] concerns junB. Kind of experiment: Acute denervation: junB mRNA in EDL and soleus (qPCR). The format is in vivo, rat.
Another experiment deals with MAFbx mRNA. Kind of experiment: MAFbx mRNA levels in AR6 / C2C12.AR cells (qPCR). The format is cell-based, mouse. The note with it: dexamethasone with concurrent testosterone. As to the method: (A) Rats were administered test agents as indicated in the figure for 7-days, at which time animals were sacrificed and MAFbx expression was determined in gastrocnemius muscles by qPCR. Data are mean values±SEM for at least 8 animals. * p<0.05 vs vehicle, t-test. (B) AR6 cells were seeded into 6-well plates and incubated overnight in growth medium. Medium was replaced with DMEM containing 2% horse serum followed by incubation for an additional 48 hours. Hormones or vehicle (EtOH) were added to the medium and cells were incubated overnight, at which time MAFbx mRNA levels were determined by qPCR and expressed as fold-induction versus levels in cells incubated with EtOH. Data are mean values±SEM for three determinations each performed in triplicate. * p<0.05 vs. EtOH (ANOVA). (C) Effect of testosterone on MAFbx mRNA half-life. C2C12.AR cells were incubated overnight in growth medium supplemented with testosterone or vehicle (EtOH). […] Levels of MAFbx mRNA are expressed as a percentage of those at time zero. […]
RNA was quantified by absorbance at 260 nm. […] Relative changes in expression were determined using the 2^−ΔΔCt method. Taqman Assay on Demand probes (Applied Biosystems) were used for all assays except rat 18S RNA, which was quantified using the following Assay on Demand Probes: Forward: […] […]

For experiment [3], the system named is starved, cultured muscle cells. Kind of experiment: Muscle breakdown in starved, cultured muscle cells. The format is cell-based.
The mark [4] stands for this setting: denervated muscle, any time tested.

On to `C[C@]12CC[C@H]3[C@@H](CCC4=CC(=O)CC[C@@H]43)[C@@H]1CC[C@@H]2O` [nandrolone], for which the results for the IGFBP-2 expression result in the experiment with IGFBP-2 (setting [4]) and in the experiment with IGFBP-2 (sham-denervated muscle) were “did not significantly alter” and “did not appreciably alter”, respectively. In addition, the figures for the IGFBP-4 expression result in the experiment on IGFBP-4 (setting [4]) and in the experiment on IGFBP-4 (sham-denervated muscle) were “did not significantly alter” and “did not appreciably alter”, respectively. For the same molecule, the values for the IGF-receptor expression result in the experiment on IGF-1 receptor (after 28 days (p<0.10)) and with IGF-1 receptor (early time points) were “trend toward increased expression” and “did not alter”, respectively. In addition, in the experiment with IGF-1 receptor (sham-denervated muscle), the IGF-1 receptor expression result is “not altered”. The junB expression result with junB [1] (denervated muscle, 3 to 28 days after starting infusion) is recorded as “tended to reduce”; in the experiment with junB [1] (sham-denervated muscle) it was “no effect”; in the experiment with junB [2] (denervated EDL), “significantly reduced”; in the experiment with junB [2] (denervated soleus), “tended to reduce”. In the experiment on junB [2] (soleus and EDL from sham-denervated limbs, tendency), the “increase in junB expression” value is “approximately 2 fold”.

As for `C[C@]12CC[C@H]3[C@@H](CCC4=CC(=O)CC[C@@]43C)[C@@H]1CC[C@@H]2O` [testosterone], in the experiment with MAFbx mRNA, the “MAFbx mRNA level versus cells exposed to ethanol only” value was “not significantly different”. In experiment [3], the muscle breakdown result is reported as “reduced”.
